According to patent US8076358B2, “6-substituted-thio-2-amino-quinoline derivatives useful as inhibitors of β-secretase (BACE)” (Janssen Pharmaceutica NV, priority 2008, dated 2011):

Biological target: human BACE-1 (Homo sapiens, UniProt P56817)
Assay: In Vitro BACE Assay (CEREP, fluorogenic substrate)
Format: biochemical
Conditions: recombinant enzyme; for inhibition at 10 µM: 10 μM test compound, pH 4.5; for IC50: pH 4.5, 60 min at 37° C.
Protocol: This assay was run by CEREP (Catalog Ref. 761-B, Referred to SOP No. 1C131; ERMOLIEFF, J., LOY, J. A., KOELSCH, G. and TANG, J., Proteolytic activation of recombinant pro-memapsin 2 (pro-BACE) studied with new fluorogenic substrates, Biochemistry, (2000) Vol. 39, p. 12450).
More specifically the assay, run at 50 μL in a 96 well plate, evaluated the effect of test compound on the activity of the human BACE-1 quantified by measuring the formation of Mca-S-E-V-N-L-NH2 from Mca-S-E-V-N-L-D-A-E-F-R-K(Dnp)-R-R—NH2, using a recombinant enzyme.
The test compound, reference compound or water (control) was added to a buffer containing 0.09 M sodium acetate (pH 4.5) and 0.25 μg BACE-1. Compound interference with the fluorimetric detection method due to autofluorescence was then checked by measurements at the wavelengths defined to evaluate the enzyme activity. Thereafter, the reaction was initiated by adding 7.5 μM of the substrate Mca-S-E-V-N-L-D-A-E-F-R-K(Dnp)-R—R—NH2 and the mixture was incubated for 60 min at 37° C. For control basal measurement, the substrate was omitted from the reaction mixture. Immediately after the incubation, the fluorescence intensity emitted by the reaction product Mca-S-E-V-N-L-NH2 was measured at λex=320 nm and λem=405 nm using a microplate reader (Ultra, Tecan). The standard inhibitory reference compound was OM99-2, which was tested in each experiment at several concentrations to obtain an inhibition curve from which its IC50 value was calculated.

Sequence of human BACE-1 (P56817 46-501): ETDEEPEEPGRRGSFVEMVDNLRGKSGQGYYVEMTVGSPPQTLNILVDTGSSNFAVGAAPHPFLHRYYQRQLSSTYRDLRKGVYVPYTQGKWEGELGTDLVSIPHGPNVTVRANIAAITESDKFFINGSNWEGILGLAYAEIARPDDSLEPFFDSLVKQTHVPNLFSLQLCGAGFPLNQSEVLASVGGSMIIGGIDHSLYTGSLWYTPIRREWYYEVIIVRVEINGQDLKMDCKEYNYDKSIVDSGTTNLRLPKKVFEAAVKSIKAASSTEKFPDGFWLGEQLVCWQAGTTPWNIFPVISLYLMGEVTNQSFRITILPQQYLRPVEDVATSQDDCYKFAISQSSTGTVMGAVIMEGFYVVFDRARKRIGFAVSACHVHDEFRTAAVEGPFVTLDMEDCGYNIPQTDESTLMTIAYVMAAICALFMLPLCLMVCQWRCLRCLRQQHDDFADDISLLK

| Compound | inhibition at 10 µM | IC50 |
| --- | --- | --- |
| CCCC(NCc1cccc(Sc2ccc3nc(N)c(CC4CCOCC4)cc3c2)c1)C(=O)O (stereo not drawn) [Compound 13] | 63% | 2800 nM |
| Nc1nc2ccc(Sc3cccc(CNCc4ccccn4)c3)cc2cc1CC1CCOCC1 [Compound 5] | 93% | 800 nM |
| CCOc1ccccc1CNCc1cccc(Sc2ccc3nc(N)c(CC4CCOCC4)cc3c2)c1 [Compound 10] | 95% | 300 nM |
| Nc1nc2ccc(Sc3cccc(CNCc4ccc(C(F)(F)F)cc4)c3)cc2cc1CC1CCOCC1 [Compound 12] | 90% | 460 nM |
| CCOc1ccccc1CNCCc1cccc(Sc2ccc3nc(N)c(CC4CCOCC4)cc3c2)c1 [Compound 20] | 98% | 140 nM |
| CCOc1ccccc1CNCc1cccc(Sc2cc3cc(CC4CCOCC4)c(N)nc3cc2F)c1 [Compound 18, 6-{3-[(2-Ethoxy-benzylamino)-methyl]-phenylsulfanyl}-7-fluoro-3-(tetrahydro-pyran-4-ylmethyl)-quinolin-2-ylamine] | 95% | 260 nM |
| Nc1nc2ccc(Sc3cccc(CCNCc4ccccn4)c3)cc2cc1CC1CCOCC1 [Compound 21] | 91% | 630 nM |
| Nc1nc2ccc(Sc3cccc(CSc4cccc(CC(=O)O)c4)c3)cc2cc1CC1CCOCC1 [Compound 17] | 94% | 330 nM |

More lines, now with the values ahead:

| inhibition at 10 µM | IC50 | Compound |
| --- | --- | --- |
| 94% | 920 nM | Cc1cc(C)c(NCc2cccc(Sc3ccc4nc(N)c(CC5CCOCC5)cc4c3)c2)c(C)c1 [Compound 2] |
| 97% | 400 nM | Nc1nc2ccc(Sc3cccc(CNCc4c(F)cccc4F)c3)cc2cc1CC1CCOCC1 [Compound 4] |
| 74% | > 10000 nM | Cc1cc(C)c(CNCc2cccc(Oc3ccc4nc(N)c(CCC5CCOCC5)cc4c3)c2)c(C)c1 [Compound (II-b), 3-[2-(Tetrahydro-pyran-4-yl)-ethyl]-6-{3-[(2,4,6-trimethylbenzylamino)-methyl]-phenoxy}-quinolin-2-ylamine] |
| 98% | 1200 nM | Cc1cc(C)c(CNCc2cccc(Oc3ccc4nc(N)c(CC5CCOCC5)cc4c3)c2)c(C)c1 [Compound (II-a), 3-(Tetrahydro-pyran-4-ylmethyl)-6-{3-[(2,4,6-trimethylbenzylamino)-methyl]-phenoxy}-quinolin-2-ylamine] |
| 98% | 450 nM | Cc1ccc(CNCc2cccc(Sc3ccc4nc(N)c(CC5CCOCC5)cc4c3)c2)c(C)c1 [Compound 6] |
| 90% | 380 nM | COc1ccc(CNCc2cccc(Sc3ccc4nc(N)c(CC5CCOCC5)cc4c3)c2)c(OC)c1 [Compound 7] |
| 98% | 240 nM | Nc1nc2ccc(Sc3cccc(CNCc4ccc(Cl)cc4Cl)c3)cc2cc1CC1CCOCC1 [Compound 9] |
| 93% | 1200 nM | Cc1ccc(C)c(COCc2cccc(Sc3ccc4nc(N)c(CC5CCOCC5)cc4c3)c2)c1 [Compound 16] |
| 95% | 210 nM | Nc1nc2ccc(Sc3cccc(CNCc4cc(F)ccc4F)c3)cc2cc1CC1CCOCC1 [Compound 8] |
| 96% | 260 nM | Cc1cc(C)c(CNCc2cccc(Sc3ccc4nc(N)c(CC5CCOCC5)cc4c3)c2)c(C)c1 [Compound 1, 3-(Tetrahydro-pyran-4-ylmethyl)-6-{3-[(2,4,6-trimethyl-benzylamino)-methyl]-phenylsulfanyl}-quinolin-2-ylamine] |
